Columns and labels:
[1] = tested on: UO-31 renal cancer cells; assay: NCI one dose, UO-31; format: cell-based, human; details: UO-31, 1.00E-5 Molar one dose
Procedure: (§1) 3.4. Cell Proliferation Assay
(§2) Selected compounds were tested on a panel of 60 human cancer cell lines at the National Cancer Institute (NCI), Germantown, MD, USA. The cytotoxicity studies were conducted using a 48 h exposure protocol using the sulfo-rhodamine B assay.

[2] = tested on: UACC-257 melanoma cells; assay: NCI one dose, UACC-257; format: cell-based, human; details: UACC-257, 1.00E-5 Molar one dose
Procedure: as §1, §2

[3] = tested on: EKVX (Non-Small Cell Lung Cancer); assay: NCI one dose, EKVX; format: cell-based, human; details: 1.00E-5 Molar one dose
Procedure: as §1, §2

[4] = tested on: UACC-62 (Melanoma); assay: NCI one dose, UACC-62; format: cell-based, human; details: UACC-62, 1.00E-5 Molar one dose
Procedure: as §1, §2

[5] = tested on: MDA-MB-468 breast cancer cells; assay: NCI one dose, MDA-MB-468; format: cell-based, human; details: MDA-MB-468, 1.00E-5 Molar one dose
Procedure: as §1, §2

[6] = tested on: HS 578T (Breast Cancer); assay: NCI one dose, HS 578T; format: cell-based, human; details: 1.00E-5 Molar one dose
Procedure: as §1, §2

[7] = tested on: LOX IMVI (Melanoma); assay: NCI one dose, LOX IMVI; format: cell-based, human; details: 1.00E-5 Molar one dose
Procedure: as §1, §2

[8] = tested on: M14 (Melanoma); assay: NCI one dose, M14; format: cell-based, human; details: M14, 1.00E-5 Molar one dose
Procedure: as §1, §2

[9] = tested on: HOP-62 (Non-Small Cell Lung Cancer); assay: NCI one dose, HOP-62; format: cell-based, human; details: HOP-62, 1.00E-5 Molar one dose
Procedure: as §1, §2

[10] = tested on: OVCAR-8 (Ovarian Cancer); assay: NCI one dose, OVCAR-8; format: cell-based, human; details: OVCAR-8, 1.00E-5 Molar one dose
Procedure: as §1, §2

[11] = tested on: HOP-92 (Non-Small Cell Lung Cancer); assay: NCI one dose, HOP-92; format: cell-based, human; details: HOP-92, 1.00E-5 Molar one dose
Procedure: as §1, §2

[12] = tested on: PC-3 (Prostate Cancer); assay: NCI one dose, PC-3; format: cell-based, human; details: PC-3, 1.00E-5 Molar one dose
Procedure: as §1, §2

[13] = tested on: SR (Leukemia); assay: NCI one dose, SR; format: cell-based, human; details: 1.00E-5 Molar one dose
Procedure: as §1, §2

[14] = tested on: KM12 (Colon Cancer); assay: NCI one dose, KM12; format: cell-based, human; details: KM12, 1.00E-5 Molar one dose
Procedure: as §1, §2

[15] = tested on: SNB-19 (CNS Cancer); assay: NCI one dose, SNB-19; format: cell-based, human; details: SNB-19, 1.00E-5 Molar one dose
Procedure: as §1, §2

[16] = tested on: RPMI-8226 (Leukemia); assay: NCI one dose, RPMI-8226; format: cell-based, human; details: RPMI-8226, 1.00E-5 Molar one dose
Procedure: as §1, §2

[17] = tested on: ACHN (Renal Cancer); assay: NCI one dose, ACHN; format: cell-based, human; details: 1.00E-5 Molar one dose
Procedure: as §1, §2

[18] = tested on: MDA-MB-231/ATCC (Breast Cancer); assay: NCI one dose, MDA-MB-231/ATCC; format: cell-based, human; details: 1.00E-5 Molar one dose
Procedure: as §1, §2

[19] = tested on: 786-0 (Renal Cancer); assay: NCI one dose, 786-0; format: cell-based, human; details: 786-0, 1.00E-5 Molar one dose
Procedure: as §1, §2

[20] = tested on: IGROV1 (Ovarian Cancer); assay: NCI one dose, IGROV1; format: cell-based, human; details: IGROV1, 1.00E-5 Molar one dose
Procedure: as §1, §2

[21] = tested on: MALME-3M (Melanoma); assay: NCI one dose, MALME-3M; format: cell-based, human; details: 1.00E-5 Molar one dose
Procedure: as §1, §2

[22] = tested on: MCF7 (Breast Cancer); assay: NCI one dose, MCF7; format: cell-based, human; details: MCF7, 1.00E-5 Molar one dose
Procedure: as §1, §2

[23] = tested on: T-47D (Breast Cancer); assay: NCI one dose, T-47D; format: cell-based, human; details: 1.00E-5 Molar one dose
Procedure: as §1, §2

[24] = tested on: MDA-MB-435 (Melanoma); assay: NCI one dose, MDA-MB-435; format: cell-based, human; details: MDA-MB-435, 1.00E-5 Molar one dose
Procedure: as §1, §2

[25] = tested on: COLO 205 (Colon Cancer); assay: NCI one dose, COLO 205; format: cell-based, human; details: COLO 205, 1.00E-5 Molar one dose
Procedure: as §1, §2

[26] = target: human farnesyltransferase (FTase) (Homo sapiens, UniProt P49354+P49356); assay: FTase inhibitory assay (fluorescence, Dansyl-GCVLS); format: biochemical; details: inhibition of human FTase at 100 μM of tested compound; mean of two experiments
Procedure: With 40 new products in hand, the determination of their inhibitory activity on human farnesyl-transferase (FTase) in vitro was first undertaken. Dimethyl sulfoxide (DMSO) was used as the negative control, and Chaetomellic acid A was the positive reference in all assays. At the outset, and in order to select only significant results, products with an inhibitory power greater than 60% at an initial screening concentration of 100 µM were retained for the determination of their IC50 and, therefore, for further discussion. Moreover, given the number of products tested, they are grouped into three subfamilies on the basis of the degree of the sulphur atom oxidation (series of sulfides, series of sulfoxides, and series of sulfones), and the results obtained are grouped in Table 1, Table 2 and Table 3.
3.3. FTase Inhibitory Assay
Assays were realized in 96-well plates, prepared with a Biomek NKMC and a Biomek 3000 from Beckman Coulter, and read on a Wallac Victor fluorimeter from PerkinElmer. Per well, 20 µL of farnesyl pyrophosphate (10 μM) was added to 180 µL of a solution containing 2 µL of varied concentrations of potential inhibitors (dissolved in DMSO) and 178 μL of a solution composed of 10 μL of partially purified recombinant human FTase (15 µg mL^−1) and 1.0 µL of Dansyl-GCVLS peptide (in the following buffer: 5.6 mM DTT, 5.6 mM MgCl2, 12 μM ZnCl2 and 0.2% (w/v) octyl-β-D-glucopyranoside, 52 mM Tris/HCl, pH 7.5). Fluorescence was recorded for 15 min (0.7 s per well, 20 repeats) at 30 °C with an excitation filter at 340 nm and an emission filter of 486 nm. Each measurement was reproduced twice, in duplicate. The kinetic experiments were realized under the same conditions, either with FPP as varied substrate with a constant concentration of Dns-GCVLS of 2.5 μM or with Dns-GCVLS as varied substrate with a constant concentration of FPP of 10 μM. Non-linear regressions were performed using the Excel software.

[27] = tested on: NCI-H522 non-small cell lung cancer cells; assay: NCI cell proliferation, NCI-H522; format: cell-based, human; details: for inhibition at 10 µM: Homo sapiens, NCI-H522, read-out: % Cancer cell growth Inhibition (NCI-H522); for Growth Percent: NCI-H522, 1.00E-5 Molar one dose
Procedure: as §1, §2

[28] = tested on: SN12C (Renal Cancer); assay: NCI one dose, SN12C; format: cell-based, human; details: 1.00E-5 Molar one dose
Procedure: as §1, §2

| SMILES | Growth Percent [1] | Growth Percent [2] | Growth Percent [3] | Growth Percent [4] | Growth Percent [5] | Growth Percent [6] | Growth Percent [7] | Growth Percent [8] | Growth Percent [9] | Growth Percent [10] | Growth Percent [11] | Growth Percent [12] | Growth Percent [13] | Growth Percent [14] | Growth Percent [15] | Growth Percent [16] | Growth Percent [17] | Growth Percent [18] | Growth Percent [19] | Growth Percent [20] | further results |
| --- | --- | --- | --- | --- | --- | --- | --- | --- | --- | --- | --- | --- | --- | --- | --- | --- | --- | --- | --- | --- | --- |
| C[C@@]12SC[C@@H](C(=O)NCc3ccc(Cl)cc3Cl)N1C(=O)c1ccccc12 [4bH] | 86.15% | 79.49% | 112.50% | 81.85% | 88.80% | 91.90% | 101.94% | 108.31% | 103.25% | 93.06% | 106.23% | 78.16% | 88.00% | 101.11% | 100.91% | 86.31% | 106.47% | 99.81% | 103.58% | 100.21% | Growth Percent [21]: 108.23%; Growth Percent [22]: 89.35%; Growth Percent [23]: 79.65%; Growth Percent [24]: 102.36%; Growth Percent [25]: 109.32%; % FTI [26]: 22%; inhibition at 10 µM [27]: 28%; Growth Percent [27]: 71.73%; Growth Percent [28]: 97.63% |
| COc1cccc(CNC(=O)[C@@H]2CS[C@H]3c4ccccc4C(=O)N23)c1 [4aE] | 97.14% | 93.82% | 111.45% | 102.11% | 106.71% | 98.68% | 102.67% | 107.40% | 96.82% | 100.28% | 99.32% | 98.06% | 84.95% | 100.40% | 104.75% | 101.67% | 110.85% | 107.16% | 102.72% | 109.07% | Growth Percent [21]: 107.90%; Growth Percent [22]: 98.52%; Growth Percent [23]: 103.32%; Growth Percent [24]: 107.01%; Growth Percent [25]: 112.81%; % FTI [26]: 35%; inhibition at 10 µM [27]: 26%; Growth Percent [27]: 74.09%; Growth Percent [28]: 105.19% |
| COc1ccccc1CNC(=O)[C@@H]1CS[C@H]2c3ccccc3C(=O)N12 [4aG] | 94.39% | 74.73% | 106.79% | 103.22% | 101.62% | 96.02% | 99.95% | 104.36% | 104.24% | 96.60% | 102.49% | 102.91% | 83.51% | 105.74% | 107.13% | 102.98% | 109.98% | 109.17% | 107.93% | 109.59% | Growth Percent [21]: 108.91%; Growth Percent [22]: 102.38%; Growth Percent [23]: 98.98%; Growth Percent [24]: 110.28%; Growth Percent [25]: 111.29%; % FTI [26]: 21%; inhibition at 10 µM [27]: 30%; Growth Percent [27]: 69.93%; Growth Percent [28]: 110.50% |
| C[C@@]12SC[C@@H](C(=O)NCc3ccccc3C(F)(F)F)N1C(=O)c1ccccc12 [4bC] | 91.39% | 73.01% | 104.01% | 87.36% | 101.77% | 94.37% | 102.39% | 100.54% | 97.48% | 92.54% | 87.86% | 80.00% | 72.94% | 100.49% | 103.86% | 87.02% | 106.49% | 100.45% | 101.91% | 103.13% | Growth Percent [21]: 112.02%; Growth Percent [22]: 90.83%; Growth Percent [23]: 86.40%; Growth Percent [24]: 98.98%; Growth Percent [25]: 104.03%; % FTI [26]: 58%; inhibition at 10 µM [27]: 19%; Growth Percent [27]: 80.71%; Growth Percent [28]: 94.74% |
| C[C@@]12SC[C@@H](C(=O)NCc3ccccc3Br)N1C(=O)c1ccccc12 [4bB] | 86.71% | 75.54% | 106.14% | 82.12% | 88.64% | 91.10% | 97.04% | 107.44% | 99.61% | 92.33% | 88.23% | 78.76% | 80.60% | 100.14% | 100.80% | 91.24% | 106.88% | 97.39% | 101.65% | 97.21% | Growth Percent [21]: 97.54%; Growth Percent [22]: 87.26%; Growth Percent [23]: 83.93%; Growth Percent [24]: 96.92%; Growth Percent [25]: 111.70%; % FTI [26]: 39%; inhibition at 10 µM [27]: 22%; Growth Percent [27]: 78.46%; Growth Percent [28]: 89.32% |
